Experimental data published in US4661505A, “Leukotriene antagonists” (Eli Lilly and Company, priority 1982, dated 1987).

Key:
Type in all cases: cell-based
[1] = molecular target: T1, LTD4 evoked ileal contractions (Cavia porcellus, UniProt Q2NNR5); assay: Antagonism of LTD4-evoked contraction of isolated guinea pig ileum (single concentration); conditions: pure LTD4, 5 minute exposure, read-out: Percent Inhibition of LTD4 evoked ileal contractions; for inhibition at 1 µM: 1 × 10^-6 M; for inhibition at 3 µM: 3 × 10^-6 M; for inhibition at 10 µM: 1 × 10^-5 M
T1 construct: A section of terminal ileum was removed, the lumen cleaned, and the tissue divided into 2.5 cm. segments; from tissue; host or cells: terminal ileum of male Hartley guinea pigs
T1 sequence (Q2NNR5 1-340): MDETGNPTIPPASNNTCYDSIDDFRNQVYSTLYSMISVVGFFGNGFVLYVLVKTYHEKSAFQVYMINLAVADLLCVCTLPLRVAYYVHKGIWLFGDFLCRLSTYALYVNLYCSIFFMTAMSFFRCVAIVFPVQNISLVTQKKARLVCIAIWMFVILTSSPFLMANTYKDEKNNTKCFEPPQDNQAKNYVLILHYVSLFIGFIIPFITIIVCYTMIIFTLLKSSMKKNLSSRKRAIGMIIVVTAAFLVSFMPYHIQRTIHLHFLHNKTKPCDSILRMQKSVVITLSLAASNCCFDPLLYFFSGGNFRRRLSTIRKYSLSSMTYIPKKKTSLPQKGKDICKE
Experimental: (§1) Male, Hartley guinea pigs weighing 200-450 grams were killed by decapitation. A section of terminal ileum was removed, the lumen cleaned, and the tissue divided into 2.5 cm. segments. The ilea were mounted in 10 ml. tissue baths containing Krebs-bicarbonate solution of the following composition in mmoles/liter: KCl, 4.6; CaCl2.2H2 O, 1.2; KH2 PO4, 1.2; MgSO4.7H2 O, 1.2; NaCl, 118.2; NaHCO3, 24.8 and dextrose, 10.0. The bath fluid was maintained at 37° C. and aerated with 95 percent oxygen and 5 percent CO2. In addition, the buffer contained 1×10^-6 M atropine to reduce ileal spontaneous activity. In studies with crude SRS-A, 1×10^-6M pyrilamine was used to mitigate the actions of histamine present along with the biologically active leukotrienes. Isometric measurements were made with a Grass FTO3C force-displacement transducer and recorded on a Grass polygraph as change in grams of force. A passive force of 0.5 g. was applied to the tissues. After an appropriate equilibration period, single submaximal control responses to either SRS-A or pure LTD4 were obtained. Following a 5 minute exposure of the ileum to an experimental drug, the control concentration of SRS-A or LTD4 was added to the tissue bath. The response of the ileum to SRS-A or LTD4 in the presence of the drug was compared to the response in the absence of the drug.
(§2) *Compounds marked with an asterisk were tested using crude SRSA as the
(§3) ileumcontracting agent; all other compounds were tested using pure

[2] = molecular target: T1, LTD4 evoked ileal contractions; assay: LTD4 antagonism, cumulative concentration-response curves in guinea pig ileum and trachea (pA2); conditions: 30 minute incubation with antagonist, Furchgott method
Experimental: For some of the drugs in this series a more detailed analysis of LTD4 antagonism was made. In these experiments, cumulative concentration-response curves were obtained to LTD4 in guinea pig ileum and trachea. This was followed by a 30 minute incubation with various concentrations of the experimental drug. The concentration response curve to LTD4 was then repeated in the presence of the antagonist. Only one concentration of antagonist was used on a single tissue. KB values were calculated by the method of Furchgott [Ann. N.Y. Acad. Sci., 139, 553 (1967)]using the following equation. [formula] Dose ratio refers to the concentration of agonist required to elicit 50 percent of the maximal response (ED50) in the presence of the antagonist divided by the ED50 in the absence of the antagonist. Calculations were performed with the aid of a computer and a digital plotter.

[3] = tested on: SRS-A evoked ileal contractions; assay: Antagonism of crude SRS-A-evoked contraction of isolated guinea pig ileum (single concentration); conditions: Cavia porcellus, 5 min, 5 minute exposure, pyrilamine 1×10^-6 M, read-out: Percent Inhibition of SRS-A evoked ileal contractions; for inhibition at 3 µM: 3 × 10^-6 M
Experimental: as §1, §2, §3

Row | SMILES | inhibition at 1 µM [1] [%] | inhibition at 3 µM [1] [%] | Kb [2] [nM] | inhibition at 10 µM [1] [%] | inhibition at 3 µM [3] [%] | inhibition at 10 µM ([3]; 1 × 10^-5 M) [%]
1 | CCCc1c(OCCCCCCCCCc2nnn[nH]2)ccc(C(C)=O)c1O [Example 12, 5-[9-(4-Acetyl-3-hydroxy-2-propylphenoxy)nonyl]-tetrazole] | 78 | 90 | 316 | – | – | –
2 | CCCc1c(OCCCCC(=O)O)ccc(C(C)=O)c1O [Example 28, 5-(4-Acetyl-3-hydroxy-2-propylphenoxy)pentanoic acid] | – | – | 1580 | – | 61 | –
3 | CCCc1c(OCCCCCc2nnn[nH]2)ccc(C(C)=O)c1O [Example 22, 5-[5-(4-Acetyl-3-hydroxy-2-propylphenoxy)pentyl]-tetrazole] | – | 87 | 263 | – | – | –
4 | CCCc1c(OCCCCCCCc2nnn[nH]2)ccc(C(C)=O)c1O [Example 10, 5-[7-(4-Acetyl-3-hydroxy-2-propylphenoxy)heptyl]-tetrazole] | 92 | 95 | 79.4 | – | – | –
5 | CCCc1c(OCCCCCCCCc2nnn[nH]2)ccc(C(C)=O)c1O [Example 11, 5-[8-(4-Acetyl-3-hydroxy-2-propylphenoxy)octyl]-tetrazole] | 89 | 100 | 316 | – | – | –
6 | CCCc1c(OCCCCCC(=O)O)ccc(C(C)=O)c1O [Example 24, 6-(4-Acetyl-3-hydroxy-2-propylphenoxy)hexanoic acid] | – | 81 | 398 | – | – | –
7 | CCCc1c(OCCCCCCCCCCc2nnn[nH]2)ccc(C(C)=O)c1O [Example 13, 5-[10-(4-Acetyl-3-hydroxy-2-propylphenoxy)decyl]-tetrazole] | 76 | 93 | 316 | – | – | –
8 | CCCc1c(OCCCCCCc2nnn[nH]2)ccc(C(C)=O)c1O [Example 9, 5-[6-(4-Acetyl-3-hydroxy-2-propylphenoxy)hexyl]-tetrazole] | 87 | 100 | 79.4 | – | – | –
9 | CCCc1c(OCCCCCCCCC(=O)O)ccc(C(C)=O)c1O [Example 31, 9-(4-Acetyl-3-hydroxy-2-propylphenoxy)nonanoic acid] | 51 | – | 2000 | 94 | – | –
10 | CC(=O)c1ccc(OCCCCCC(=O)O)cc1O [Example 25, 6-(4-Acetyl-3-hydroxyphenoxy)hexanoic acid] | – | – | – | – | 11 | –
11 | CCCc1c(OC(CCCCC(=O)O)c2ccc(-c3ccccc3)cc2)ccc(C(C)=O)c1O (stereo not drawn) [Example 17, 6-(4-Acetyl-3-hydroxy-2-propylphenoxy)-6-(4-biphenyl)hexanoic acid] | – | – | – | – | – | 44
12 | CC(=O)c1ccc(OC(CCCCC(=O)O)c2ccccc2)cc1O (stereo not drawn) [Example 20, 6-(4-Acetyl-3-hydroxyphenoxy)-6-phenyl-hexanoic acid] | – | – | – | – | 20 | –

Second part, led by results:

Row | inhibition at 1 µM [1] [%] | inhibition at 3 µM [1] [%] | Kb [2] [nM] | inhibition at 10 µM [1] [%] | SMILES | inhibition at 3 µM [3] [%] | inhibition at 10 µM ([3]; 1 × 10^-5 M) [%]
13 | – | 45 | 1580 | 79 | CCCc1c(OC(C)CCCCC(=O)O)ccc(C(C)=O)c1O (stereo not drawn) [Example 40, 6-(4-Acetyl-3-hydroxy-2-propylphenoxy)heptanoic acid] | – | –
14 | 50 | – | 501 | 100 | CCCc1c(OCCCCCCCCSc2nn[nH]n2)ccc(C(C)=O)c1O [Example 73, 5-[8-(4-Acetyl-3-hydroxy-2-propylphenoxy)octanethio]-tetrazole] | – | –
15 | 82 | – | 158 | 100 | CCCc1c(OCCCCCSc2nn[nH]n2)ccc(C(C)=O)c1O [Example 68, 5-[5-(4-Acetyl-3-hydroxy-2-propylphenoxy)pentanethio]-tetrazole] | – | –
16 | – | 56 | 794 | 88 | CCCc1c(OCCCCCC(=O)O)ccc(C(=O)CC)c1O [Example 34, 6-(4-Propionyl-3-hydroxy-2-propylphenoxy)hexanoic acid] | – | –
17 | 95 | – | 31.6 | – | CCCc1c(OCCCSc2nn[nH]n2)ccc(C(C)=O)c1O [Example 59, 5-[3-(4-Acetyl-3-hydroxy-2-propylphenoxy)propanethio]-tetrazole] | – | –
18 | 87 | – | 100 | – | CCCc1c(OCCCCSc2nn[nH]n2)ccc(C(C)=O)c1O [Example 57, 5-[4-(4-Acetyl-3-hydroxy-2-propylphenoxy)butanethio]-tetrazole] | – | –
19 | 47 | – | 1120 | – | CCCc1c(OCCSc2nn[nH]n2)ccc(C(C)=O)c1O [Example 58, 5-[2-(4-Acetyl-3-hydroxy-2-propylphenoxy)ethanethio]-tetrazole] | – | –
